The series is described as follows: UV absorbance (UV spectra), sunscreen properties. Format: physicochemical. The text has this: FIG. 1 through 8 show UV spectra of 111 compounds sharing PABA “hot building block”, their 16 synthetic intermediates, and one compound with salicylic acid building block. Reference numerals identify compounds according to the numbering adopted in the Experimental section and elsewhere in the specification.
UV-B (290-320 nm) radiation is known to be harmful for human skin. Acute negative effects include inflammation, sunburns, pigmentation changes and hyperplasia. Chronic negative effects include photoaging, immunosuppression and photocarcinogenesis, including squamous cells, basal cells and melanoma skin cancer. The UV-B radiation is also responsible for 98% of cases of delayed erythema development.
Various sunscreen agents have been developed to protect human skin from this harmful UV-B radiation. One known class of such UV-B sunscreen agents is PABA and its various derivatives. Their UV-protecting properties are due to their strong UV absorbance (e266=15,000 for p-aminobenzoic acid). […] As such, these compounds are useful as sunscreen agents.

As for `Nc1ccc(C(=O)O)cc1` [Compound (59), 4-Aminobenzoic acid], the “UV absorbance e266” value is recorded as 15,000.

The values above are taken from patent US20060110743A1, “Drug evolution: drug design at hot spots” (priority 2004, published 2006).
